Measured values taken from US8048840B2, “Ether compound” (Kao Corporation, priority 2007, dated 2011).

Experiment: Emulsification of a mixture of water and oil
Assay type: physicochemical
Conditions: with addition of the compound
Source text: Therefore, it is understood that the novel ether compound of the present invention has good water-solubility. It was confirmed that a mixture of water and oil was emulsified with addition of the compound a1-1.

## dendrimer type tetraglycidyl polylauryl ether [a1-1]
  emulsification of a mixture of water and oil: emulsified
